Results from US10526327B2, “Histone demethylase inhibitors” (CELGENE QUANTICEL RESEARCH, INC., priority 2013, dated 2020).

Columns and labels:
Jarid1B = target: T1, Jarid1B (Homo sapiens, UniProt Q9UGL1); experiment: Jarid1B in vitro enzyme inhibition assay (TR-FRET); format: biochemical
T1 construct: purchased BPS Bioscience or custom made by MolecularThroughput 50121
T1 sequence (Q9UGL1 2-751): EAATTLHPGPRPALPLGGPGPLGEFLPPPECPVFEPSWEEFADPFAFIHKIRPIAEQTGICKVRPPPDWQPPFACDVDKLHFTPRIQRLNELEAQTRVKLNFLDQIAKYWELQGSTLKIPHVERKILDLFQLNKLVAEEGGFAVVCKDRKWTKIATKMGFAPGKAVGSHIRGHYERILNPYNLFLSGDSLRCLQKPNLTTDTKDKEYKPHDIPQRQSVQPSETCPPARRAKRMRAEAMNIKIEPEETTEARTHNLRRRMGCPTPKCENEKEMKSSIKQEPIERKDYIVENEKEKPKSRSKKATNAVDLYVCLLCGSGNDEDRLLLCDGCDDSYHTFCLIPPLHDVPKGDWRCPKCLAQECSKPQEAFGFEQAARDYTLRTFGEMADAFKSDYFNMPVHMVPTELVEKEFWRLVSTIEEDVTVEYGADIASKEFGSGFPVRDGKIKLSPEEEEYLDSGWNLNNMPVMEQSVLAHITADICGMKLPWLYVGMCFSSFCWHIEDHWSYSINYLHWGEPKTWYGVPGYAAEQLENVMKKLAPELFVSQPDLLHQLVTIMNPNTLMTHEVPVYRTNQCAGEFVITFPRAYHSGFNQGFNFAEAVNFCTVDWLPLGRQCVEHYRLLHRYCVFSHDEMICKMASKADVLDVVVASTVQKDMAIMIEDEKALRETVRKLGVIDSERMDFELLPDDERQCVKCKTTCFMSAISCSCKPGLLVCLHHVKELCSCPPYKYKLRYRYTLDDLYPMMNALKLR
Excerpt: (§1) This assay determines the ability of a test compound to inhibit Jarid1A, Jarid1B, and JMJD2C demethylase activity. Baculovirus expressed Jarid1A (GenBank Accession #NM_001042603, AA1-1090) was purchased from BPS Bioscience (Cat#50110). Baculovirus expressed Jarid1B (GenBank Accession #NM_006618, AA 2-751) was purchased from BPS Bioscience (Cat #50121) or custom made by MolecularThroughput. Baculovirus expressed JMJD2C (GenBank Accession #BC143571, AA 2-372) was purchased from BPS Bioscience (Cat#50105).
The ability of test compounds to inhibit the activity of Jarid1B was determined in 384-well plate format under the following reaction conditions: 0.8 nM Jarid1B, 300 nM H3K4me3-biotin labeled peptide (Anaspec cat #64357), 2 μM alpha-ketoglutaric acid in assay buffer of 50 mM HEPES, pH7.3, 0.005% Brij35, 0.5 mM TCEP, 0.2 mg/ml BSA, 50 μM sodium L-ascorbate, and 2 μM ammonium iron(II) sulfate. Reaction product was determined quantitatively by TR-FRET after the addition of detection reagent Phycolink Streptavidin-allophycocyanin (Prozyme) and Europium-anti-mono-or di-methylated histone H3 lysine 4 (H3K4me1-2) antibody (PerkinElmer) in the presence of 5 mM EDTA in LANCE detection buffer (PerkinElmer) at a final concentration of 25 nM and 1 nM, respectively.
(§2) The assay reaction was initiated by the following: 2 μl of the mixture of 900 nM H3K4me3-biotin labeled peptide and 6 μM alpha-ketoglutaric acid with 2 μl of 11-point serial diluted inhibitor in 3% DMSO was added to each well of the plate, followed by the addition of 2 μl of 2.4 nM Jarid1B to initiate the reaction. The reaction mixture was incubated at room temperature for 30 minutes, and terminated by the addition of 6 μl of 5 mM EDTA in LANCE detection buffer containing 50 nM Phycolink Streptavidin-allophycocyanin and 2 nM Europium-anti-H3K4me1-2 antibody. Plates were read by EnVisionMultilabel Reader in TR-FRET mode (excitation at 320 nm, emission at 615 nm and 665 nm) after 1 hour incubation at room temperature. A ratio was calculated (665/615) for each well and fitted to determine inhibition constant (IC50).

JMJD2C = target: T2, JMJD2C (Homo sapiens, UniProt Q9H3R0); experiment: JMJD2C in vitro enzyme inhibition assay (TR-FRET); format: biochemical
T2 construct: purchased BPS Bioscience 50105
T2 sequence (Q9H3R0 2-372): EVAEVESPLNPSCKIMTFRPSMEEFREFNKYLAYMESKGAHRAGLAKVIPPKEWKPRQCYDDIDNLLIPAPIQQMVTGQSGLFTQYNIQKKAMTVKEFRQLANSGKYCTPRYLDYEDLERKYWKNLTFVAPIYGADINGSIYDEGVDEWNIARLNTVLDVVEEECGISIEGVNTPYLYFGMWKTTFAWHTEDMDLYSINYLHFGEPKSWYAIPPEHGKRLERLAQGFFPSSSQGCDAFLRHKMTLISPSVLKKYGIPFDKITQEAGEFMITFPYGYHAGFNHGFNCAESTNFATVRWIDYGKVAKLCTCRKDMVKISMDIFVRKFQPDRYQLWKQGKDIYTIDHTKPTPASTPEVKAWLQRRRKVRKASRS
Excerpt: as §1
The ability of test compounds to inhibit the activity of JMJD2C was determined in 384-well plate format under the following reaction conditions: 0.3 nM JMJD2C, 300 nM H3K9me3-biotin labeled peptide (Anaspec cat #64360), 2 μM alpha-ketoglutaric acid in assay buffer of 50 mM HEPES, pH7.3, 0.005% Brij35, 0.5 mM TCEP, 0.2 mg/ml BSA, 50 μM sodium L-ascorbate, and 2 μM ammonium iron(II) sulfate. Reaction product was determined quantitatively by TR-FRET after the addition of detection reagent Phycolink Streptavidin-allophycocyanin (Prozyme) and Europium-anti-di-methylated histone H3 lysine 9 (H3K9me2) antibody (PerkinElmer) in the presence of 5 mM EDTA in LANCE detection buffer (PerkinElmer) at a final concentration of 50 nM and 1 nM, respectively.
as §2, with “nM H3K9me3-biotin” for “nM H3K4me3-biotin”, “DMSO were” for “DMSO was”, “of 0.9” for “of 2.4”, “nM JMJD2C” for “nM Jarid1B”, “containing 100” for “containing 50”, “nM Europium-anti-H3K9me2” for “nM Europium-anti-H3K4me1-2”

Row | Structure (SMILES) | IC50 (Jarid1B) | IC50 (JMJD2C)
1 | CC(C)CCn1cc(Oc2nc(O)c3ccncc3n2)cn1 [Example 55, 2-{[1-(3-methylbutyl)pyrazol-4-yl]oxy}pyrido[3,4-d]pyrimidin-4-ol] | ≤ 100 nM | ≤ 100 nM
2 | Oc1nc(Oc2cnn(C3CCCC3)c2)nc2cnccc12 [Example 56, 2-[(1-cyclopentylpyrazol-4-yl)oxy]pyrido[3,4-d]pyrimidin-4-ol] | ≤ 100 nM | ≤ 100 nM
3 | CCc1cccc(Oc2nc(O)c3ccncc3n2)c1 [Example 57, 2-(3-ethylphenoxy)pyrido[3,4-d]pyrimidin-4-ol] | ≤ 100 nM | ≤ 100 nM
4 | CCCc1cccc(Oc2nc(O)c3ccncc3n2)c1 [Example 58, 2-(3-propylphenoxy)pyrido[3,4-d]pyrimidin-4-ol] | ≤ 100 nM | 100 to 1000 nM
5 | CN(C)c1ccc(Oc2nc(O)c3ccncc3n2)cc1 [Example 59, 2-[4-(dimethylamino)phenoxy]pyrido[3,4-d]pyrimidin-4-ol] | ≤ 100 nM | 100 to 1000 nM
6 | O=C(c1cc(F)cc(Oc2nc(O)c3ccncc3n2)c1)N1CCOCC1 [Example 60] | ≤ 100 nM | 100 to 1000 nM
7 | COCCn1ncc2ccc(Oc3nc(O)c4ccncc4n3)cc21 [Example 61, 2-{[1-(2-methoxyethyl)-1H-indazol-6-yl]oxy}pyrido[3,4-d]pyrimidin-4-ol] | ≤ 100 nM | 100 to 1000 nM
8 | CCn1cc(Oc2nc(O)c3ccncc3n2)cn1 [Example 62, 2-[(1-ethyl-1H-pyrazol-4-yl)oxy]pyrido[3,4-d]pyrimidin-4-ol] | ≤ 100 nM | ≤ 100 nM
9 | CC(C)n1cc(Oc2nc3cnccc3c(=O)[nH]2)cn1 [Example 63, 2-{[1-(propan-2-yl)-1H-pyrazol-4-yl]oxy}pyrido[3,4-d]pyrimidin-4-ol] | ≤ 100 nM | 100 to 1000 nM
10 | COCCn1cc(Oc2nc(O)c3ccncc3n2)cn1 [Example 64, 2-{[1-(2-methoxyethyl)-1H-pyrazol-4-yl]oxy}pyrido[3,4-d]pyrimidin-4-ol] | ≤ 100 nM | 100 to 1000 nM
11 | COCCCn1cc(Oc2nc(O)c3ccncc3n2)cn1 [Example 65, 2-{[1-(3-methoxypropyl)-1H-pyrazol-4-yl]oxy}pyrido[3,4-d]pyrimidin-4-ol] | ≤ 100 nM | 100 to 1000 nM
12 | Oc1nc(Oc2cnn(Cc3ccccc3)c2)nc2cnccc12 [Example 66, 2-[(1-benzyl-1H-pyrazol-4-yl)oxy]pyrido[3,4-d]pyrimidin-4-ol] | ≤ 100 nM | ≤ 100 nM
13 | Oc1nc(Oc2cnn(C3CCOCC3)c2)nc2cnccc12 [Example 67, 2-{[1-(tetrahydro-2H-pyran-4-yl)-1H-pyrazol-4-yl]oxy}pyrido[3,4-d]pyrimidin-4-ol] | ≤ 100 nM | 100 to 1000 nM
14 | COc1nc(O)c2ccnc(-c3cn(C)cn3)c2n1 [Example 68, 2-methoxy-8-(1-methyl-1H-imidazol-4-yl)pyrido[3,4-d]pyrimidin-4-ol] | ≤ 100 nM | 100 to 1000 nM
15 | CCOc1nc(O)c2ccnc(-c3cn(C)cn3)c2n1 [Example 69, 2-ethoxy-8-(1-methyl-1H-imidazol-4-yl)pyrido[3,4-d]pyrimidin-4-ol] | ≤ 100 nM | 100 to 1000 nM
16 | Cn1cnc(-c2nccc3c(O)nc(OCC(F)(F)F)nc23)c1 [Example 70, 8-(1-methyl-1H-imidazol-4-yl)-2-(2,2,2-trifluoroethoxy)pyrido[3,4-d]pyrimidin-4-ol] | ≤ 100 nM | 100 to 1000 nM
17 | Cn1cnc(-c2nccc3c(O)nc(OCc4ccc(F)cc4)nc23)c1 [Example 71, 2-[(4-fluorobenzyl)oxy]-8-(1-methyl-1H-imidazol-4-yl)pyrido[3,4-d]pyrimidin-4-ol] | ≤ 100 nM | 100 to 1000 nM
18 | Cn1cnc(-c2nccc3c(O)nc(OCC4CC4)nc23)c1 [Example 72, 2-(cyclopropylmethoxy)-8-(1-methylimidazol-4-yl)pyrido[3,4-d]pyrimidin-4-ol] | ≤ 100 nM | 100 to 1000 nM
19 | Cn1cnc(-c2nccc3c(O)nc(OCCCC(F)(F)F)nc23)c1 [Example 74, 8-(1-methylimidazol-4-yl)-2-(4,4,4-trifluorobutoxy)pyrido[3,4-d]pyrimidin-4-ol] | ≤ 100 nM | 100 to 1000 nM
20 | Cn1cnc(-c2nccc3c(O)nc(OCCO)nc23)c1 [Example 75, 2-(2-hydroxyethoxy)-8-(1-methylimidazol-4-yl)pyrido[3,4-d]pyrimidin-4-ol] | ≤ 100 nM | 100 to 1000 nM
21 | CN(C)CCOc1nc(O)c2ccnc(-c3cn(C)cn3)c2n1 [Example 76, 2-[2-(dimethylamino)ethoxy]-8-(1-methylimidazol-4-yl)pyrido[3,4-d]pyrimidin-4-ol] | 100 to 1000 nM | 100 to 1000 nM
22 | Cn1cnc(-c2nccc3c(O)nc(OCC(F)F)nc23)c1 [Example 77, 2-(2,2-difluoroethoxy)-8-(1-methylimidazol-4-yl)pyrido[3,4-d]pyrimidin-4-ol] | ≤ 100 nM | 100 to 1000 nM
23 | Cn1cnc(-c2nccc3c(O)nc(OCCC4CC4)nc23)c1 [Example 78, 2-(2-cyclopropylethoxy)-8-(1-methylimidazol-4-yl)pyrido[3,4-d]pyrimidin-4-ol] | ≤ 100 nM | 100 to 1000 nM
24 | Cn1cnc(-c2nccc3c(O)nc(Oc4cnn(Cc5ccccc5)c4)nc23)c1 [Example 79, 2-(1-benzylpyrazol-4-yl)oxy-8-(1-methylimidazol-4-yl)pyrido[3,4-d]pyrimidin-4-ol] | ≤ 100 nM | 100 to 1000 nM
25 | CC(C)CCn1cc(Oc2nc(O)c3ccnc(-c4cn(C)cn4)c3n2)cn1 [Example 80, 2-[1-(3-methylbutyl)pyrazol-4-yl]oxy-8-(1-methylimidazol-4-yl)pyrido[3,4-d]pyrimidin-4-ol] | ≤ 100 nM | 100 to 1000 nM
